Reference: patent publication US20060030616A1, “Anhydride modified cantharidin analogues useful in the treatment of cancer” (priority 1998, published 2006)
Read-outs that look alike come from different tables or passages of the source.

Columns and labels:
nine cancer cell lines = experiment: MTT cytotoxicity assay, 72 h, ranges over cell line panel; format: cell-based
Outline: (§1)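 Cells plated (L1210 at 1000 cells/well, others 2000-25000 cells/well) and grown 24 h before 72 h exposure to phosphatase inhibitors over […], in triplicate. MTT formazan absorbance at 540 nm; IC50 is the concentration giving 50% growth inhibition from the day 0 to day 3 optical density difference.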

L1210 cells = experiment: MTT cytotoxicity assay, 72 h; format: cell-based, murine; settings: L1210, p53 wt; read-out: IC50 (mean ± SE) after 72 h continuous exposure
Outline: as §1

HL60 cells = experiment: Cell cycle analysis, flow cytometry of propidium iodide stained cells; format: cell-based, human
Experimental: (§2) The cells are fixed in 70% ethanol and stored at −20° C. until analysis is performed (1-2 weeks). After fixing, the cells are pelleted and incubated in PBS containing propidium iodide ([…]) and RNase A (200 mg/ml) for at least 30 min at room temperature. The samples (2×10^4 events) are analysed using a Becton Dickson FACScan, fluorescence is collected in fluorescence detector 2 (FL2), filter 575/30 nm band pass. Cell cycle distribution is assessed using Cell Quest software (Becton Dickson).
(§3) The ability of the protein phosphatase inhibitors to abrogate the G1 or G2 checkpoint of the cell cycle may be determined by cell cycle analysis using flow cytometry. Briefly, asynchronous cell cultures are harvested 18 h after 6 Gy irradiation and/or 12 h incubation with the protein phosphatase inhibitor. Depending upon the p53 status of the cell line, radiation treatment alone will induce arrest in either G1 and/or G2 phase of the cell cycle.
(§4) Data shown in Table 2 and FIG. 4 show the cell cycle response of L1210, HL60, HT29 and HCT116 cells to cantharidin and the new cantharidin analogues MK-2 and MK-4 after 12 h exposure. In summary, cantharidin and MK-2 produced a similar response and induced G2 arrest in all four cell lines tested. […] HL60 and HCT116 cells. […] The magnitude of the cell cycle arrest induced by these drugs directly correlated with their cytotoxicity in the respective cell lines. […] The cytotoxicity of the […]

HCT116 cells = experiment: as above; format: cell-based, human
Experimental: as §2, §3, §4

HT29 cells = experiment: as above; format: cell-based, human; settings: 12 h
Experimental: as §2, §3, §4

O=C1OC(O)C2C3CCC(O3)C12 (stereo not drawn) [MK-4]
IC50 (nine cancer cell lines; colon lines, read-out: IC50 range in human colon cancer cell lines): 14 to 88 µM
IC50 (nine cancer cell lines; leukaemia lines, read-out: IC50 range in leukaemia cells): 393 to 680 µM
IC50 (nine cancer cell lines; ovarian lines, read-out: IC50 range in ovarian cells): 275 to 333 µM
IC50 (L1210 cells): 680 ± 97 µM
Cell Cycle Distribution, G1 (HL60 cells; HL60, 50 μM, 12 h): 44.7 percentage of total
Cell Cycle Distribution, G2 + M (HL60 cells; HL60, 50 μM, 12 h): 32.3 percentage of total
Cell Cycle Distribution, S (HL60 cells; HL60, 50 μM, 12 h): 22.3 percentage of total
Cell Cycle Distribution, sub G1 (HL60 cells; HL60, 50 μM, 12 h): 1.9 percentage of total
Cell Cycle Distribution, G1 (HL60 cells; HL60, 100 μM, 12 h): 45.3 percentage of total
Cell Cycle Distribution, G2 + M (HL60 cells; HL60, 100 μM, 12 h): 30.6 percentage of total
Cell Cycle Distribution, S (HL60 cells; HL60, 100 μM, 12 h): 22.6 percentage of total
Cell Cycle Distribution, sub G1 (HL60 cells; HL60, 100 μM, 12 h): 2.5 percentage of total
Cell Cycle Distribution, G1 (HL60 cells; HL60, 250 μM, 12 h): 40.0 percentage of total
Cell Cycle Distribution, G2 + M (HL60 cells; HL60, 250 μM, 12 h): 32.0 percentage of total
Cell Cycle Distribution, S (HL60 cells; HL60, 250 μM, 12 h): 23.0 percentage of total
Cell Cycle Distribution, sub G1 (HL60 cells; HL60, 250 μM, 12 h): 6.0 percentage of total
Cell Cycle Distribution, G1 (HL60 cells; HL60, 500 μM, 12 h): 27.8 percentage of total
Cell Cycle Distribution, G2 + M (HL60 cells; HL60, 500 μM, 12 h): 44.4 percentage of total
Cell Cycle Distribution, S (HL60 cells; HL60, 500 μM, 12 h): 22.8 percentage of total
Cell Cycle Distribution, sub G1 (HL60 cells; HL60, 500 μM, 12 h): 6.1 percentage of total
Cell cycle remark (HL60 cells; HL60, 500 μM, 12 h): G2 arrest
Cell cycle response (HL60 cells; HL60, 12 h exposure): G2 arrest
Cell Cycle Distribution, G1 (HCT116 cells; HCT116, 50 μM, 12 h): 43.9 percentage of total
Cell Cycle Distribution, G2 + M (HCT116 cells; HCT116, 50 μM, 12 h): 40.7 percentage of total
Cell Cycle Distribution, S (HCT116 cells; HCT116, 50 μM, 12 h): 11.4 percentage of total
Cell Cycle Distribution, sub G1 (HCT116 cells; HCT116, 50 μM, 12 h): 4.5 percentage of total
Cell Cycle Distribution, G1 (HCT116 cells; HCT116, 100 μM, 12 h): 41.4 percentage of total
Cell Cycle Distribution, G2 + M (HCT116 cells; HCT116, 100 μM, 12 h): 44.1 percentage of total
Cell Cycle Distribution, S (HCT116 cells; HCT116, 100 μM, 12 h): 13.6 percentage of total
Cell Cycle Distribution, sub G1 (HCT116 cells; HCT116, 100 μM, 12 h): 2.0 percentage of total
Cell Cycle Distribution, G1 (HCT116 cells; HCT116, 250 μM, 12 h): 36.2 percentage of total
Cell Cycle Distribution, G2 + M (HCT116 cells; HCT116, 250 μM, 12 h): 46.9 percentage of total
Cell Cycle Distribution, S (HCT116 cells; HCT116, 250 μM, 12 h): 14.1 percentage of total
Cell Cycle Distribution, sub G1 (HCT116 cells; HCT116, 250 μM, 12 h): 3.9 percentage of total
Cell Cycle Distribution, G1 (HCT116 cells; HCT116, 500 μM, 12 h): 29.0 percentage of total
Cell Cycle Distribution, G2 + M (HCT116 cells; HCT116, 500 μM, 12 h): 46.5 percentage of total
Cell Cycle Distribution, S (HCT116 cells; HCT116, 500 μM, 12 h): 15.7 percentage of total
Cell Cycle Distribution, sub G1 (HCT116 cells; HCT116, 500 μM, 12 h): 9.6 percentage of total
Cell cycle remark (HCT116 cells; HCT116, 500 μM, 12 h): G2 arrest
Cell cycle response (HCT116 cells; HCT116, 12 h exposure): G2 arrest
Cell Cycle Distribution, G1 (HT29 cells; HT29, 50 μM): 51.4 percentage of total
Cell Cycle Distribution, G2 + M (HT29 cells; HT29, 50 μM): 31.6 percentage of total
Cell Cycle Distribution, S (HT29 cells; HT29, 50 μM): 12.3 percentage of total
Cell Cycle Distribution, sub G1 (HT29 cells; HT29, 50 μM): 4.7 percentage of total
Cell Cycle Distribution, G1 (HT29 cells; HT29, 100 μM): 52.3 percentage of total
Cell Cycle Distribution, G2 + M (HT29 cells; HT29, 100 μM): 29.4 percentage of total
Cell Cycle Distribution, S (HT29 cells; HT29, 100 μM): 12.5 percentage of total
Cell Cycle Distribution, sub G1 (HT29 cells; HT29, 100 μM): 6.0 percentage of total
Cell Cycle Distribution, G1 (HT29 cells; HT29, 250 μM): 53.2 percentage of total
Cell Cycle Distribution, G2 + M (HT29 cells; HT29, 250 μM): 27.6 percentage of total
Cell Cycle Distribution, S (HT29 cells; HT29, 250 μM): 11.9 percentage of total
Cell Cycle Distribution, sub G1 (HT29 cells; HT29, 250 μM): 7.0 percentage of total
Cell Cycle Distribution, G1 (HT29 cells; HT29, 500 μM): 53.7 percentage of total
Cell Cycle Distribution, G2 + M (HT29 cells; HT29, 500 μM): 29.1 percentage of total
Cell Cycle Distribution, S (HT29 cells; HT29, 500 μM): 14.1 percentage of total
Cell Cycle Distribution, sub G1 (HT29 cells; HT29, 500 μM): 3.4 percentage of total
Cell cycle remark (HT29 cells; HT29, 500 μM): G1 arrest
